According to US9113629B2, “4-amino-6-(4-substituted-phenyl)-picolinates and 6-amino-2-(4-substituted-phenyl)-pyrimidine-4-carboxylates and their use as herbicides” (DOW AGROSCIENCES LLC, priority 2013, dated 2015):
Read-outs that look alike come from different tables or passages of the source.

How the values were obtained:
[1] = tested on: Key Grass and Sedge Weeds as well as Grass Crops; experiment: Post-emergent Test II herbicidal activity (Table 6); assay type: in vivo; conditions: post-emergence, 336 h; for pest or weed control at 70 g/ha: application rate 70 g ai/ha; for pest or weed control at 140 g/ha: application rate 140 g ai/ha
Method in brief: (§1)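 Test species were raised 7–21 d under greenhouse conditions until reaching the first or second true leaf, sprayed with formulated compound at 187 L/ha, and kept subirrigated to avoid wash-off. Fourteen days later, damage was rated visually on a 0–100% scale against untreated plants.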

[2] = tested on: Key Broadleaf Weed and Crop Species; experiment: Post-emergent Test II herbicidal activity (Table 5); assay type: in vivo; conditions: post-emergence, 336 h, post-emergent, 14 days after application; for pest or weed control at 70 g/ha: 70 g ai/ha; for pest or weed control at 140 g/ha: 140 g ai/ha
Method in brief: as §1

[3] = Triticum aestivum, TRZSS (wheat), read-out: Visual Growth Reduction (%) 14 Days After Application, TRZSS
[4] = CYPES: yellow nutsedge (Cyperus esculentus), read-out: Visual Growth Reduction (%) 14 Days After Application, CYPES
[5] = DIGSA: crabgrass (Digitaria sanguinalis), read-out: Visual Growth Reduction (%) 14 Days After Application, DIGSA
[6] = ECHCG: barnyardgrass (Echinochloa crus-galli), read-out: Visual Growth Reduction (%) 14 Days After Application, ECHCG
[7] = ORYSA: rice (Oryza sativa), read-out: Visual Growth Reduction (%) 14 Days After Application, ORYSA
[8] = SETFA: giant foxtail (Setaria faberi), read-out: Visual Growth Reduction (%) 14 Days After Application, SETFA
[9] = SORVU: grain sorghum (Sorghum vulgare), read-out: Visual Growth Reduction (%) 14 Days After Application, SORVU
[10] = ZEAMX: maize, corn (Zea mays), read-out: Visual Growth Reduction (%) 14 Days After Application, ZEAMX
[11] = ABUTH: velvetleaf (Abutilon theophrasti), read-out: Visual Growth Reduction (%) 14 Days After Application ABUTH
[12] = AMARE: redroot pigweed (Amaranthus retroflexus), read-out: Visual Growth Reduction (%) 14 Days After Application AMARE
[13] = BRSNN: oilseed-rape, canola (Brassica napus), read-out: Visual Growth Reduction (%) 14 Days After Application BRSNN
[14] = CHEAL: lambsquarters (Chenopodium album), read-out: Visual Growth Reduction (%) 14 Days After Application CHEAL
[15] = EPHHL: wild poinsettia (Euphorbia heterophylla), read-out: Visual Growth Reduction (%) 14 Days After Application EPHHL
[16] = HELAN: sunflower (Helianthus annuus), read-out: Visual Growth Reduction (%) 14 Days After Application HELAN
[17] = VIOTR: wild pansy (Viola tricolor), read-out: Visual Growth Reduction (%) 14 Days After Application VIOTR

| SMILES | pest or weed control at 70 g/ha [1, 3] [%] | pest or weed control at 140 g/ha [1, 3] [%] | pest or weed control at 70 g/ha [1, 4] [%] | pest or weed control at 140 g/ha [1, 4] [%] | pest or weed control at 70 g/ha [1, 5] [%] | pest or weed control at 140 g/ha [1, 5] [%] | pest or weed control at 70 g/ha [1, 6] [%] | pest or weed control at 140 g/ha [1, 6] [%] | pest or weed control at 70 g/ha [1, 7] [%] | pest or weed control at 140 g/ha [1, 7] [%] | pest or weed control at 70 g/ha [1, 8] [%] | pest or weed control at 140 g/ha [1, 8] [%] | pest or weed control at 70 g/ha [1, 9] [%] | pest or weed control at 140 g/ha [1, 9] [%] | pest or weed control at 70 g/ha [1, 10] [%] | pest or weed control at 140 g/ha [1, 10] [%] | pest or weed control at 70 g/ha [2, 11] [%] | pest or weed control at 140 g/ha [2, 11] [%] | pest or weed control at 70 g/ha [2, 12] [%] | pest or weed control at 140 g/ha [2, 12] [%] | other results |
| --- | --- | --- | --- | --- | --- | --- | --- | --- | --- | --- | --- | --- | --- | --- | --- | --- | --- | --- | --- | --- | --- |
| C=Cc1c(C(=O)OC)nc(-c2ccc(C#N)cc2)c(F)c1N [Compound 107, methyl 4-amino-6-(4-cyanophenyl)-5-fluoro-3-vinylpicolinate] | 0 to 29 | 0 to 29 | 0 to 29 | 60 to 74 | 0 to 29 | 0 to 29 | 0 to 29 | 0 to 29 | 0 to 29 | 0 to 29 | 0 to 29 | 0 to 29 | 0 to 29 | 0 to 29 | 0 to 29 | 0 to 29 | 75 to 84 | 75 to 84 | 0 to 29 | 0 to 29 | pest or weed control at 70 g/ha [2, 13]: 0 to 29%; pest or weed control at 140 g/ha [2, 13]: 0 to 29%; pest or weed control at 70 g/ha [2, 14]: 95 to 100%; pest or weed control at 140 g/ha [2, 14]: 95 to 100%; pest or weed control at 70 g/ha [2, 15]: 95 to 100%; pest or weed control at 140 g/ha [2, 15]: 95 to 100%; pest or weed control at 70 g/ha [2, 16]: 75 to 84%; pest or weed control at 140 g/ha [2, 16]: 85 to 94%; pest or weed control at 70 g/ha [2, 17]: 0 to 29%; pest or weed control at 140 g/ha [2, 17]: 0 to 29% |
| COC(=O)c1nc(-c2ccc(Br)c(F)c2)c(Cl)c(N)c1Cl [Compound 73, Methyl 4-amino-6-(4-bromo-3-fluorophenyl)-3,5-dichloropicolinate] | 60 to 74 | 60 to 74 | 95 to 100 | 95 to 100 | 0 to 29 | 45 to 59 | 0 to 29 | 60 to 74 | 0 to 29 | 0 to 29 | 60 to 74 | 60 to 74 | 85 to 94 | 85 to 94 | 60 to 74 | 60 to 74 | 85 to 94 | 85 to 94 | 95 to 100 | 95 to 100 | pest or weed control at 70 g/ha [2, 13]: 95 to 100%; pest or weed control at 140 g/ha [2, 13]: 95 to 100%; pest or weed control at 70 g/ha [2, 14]: 85 to 94%; pest or weed control at 140 g/ha [2, 14]: 85 to 94%; pest or weed control at 70 g/ha [2, 15]: 45 to 59%; pest or weed control at 140 g/ha [2, 15]: 60 to 74%; pest or weed control at 70 g/ha [2, 16]: 95 to 100%; pest or weed control at 140 g/ha [2, 16]: 95 to 100%; pest or weed control at 70 g/ha [2, 17]: 45 to 59%; pest or weed control at 140 g/ha [2, 17]: 45 to 59% |
